Laboratory results reported in patent US10611748B2, “Xanthone derivatives for the treatment of hepatitis B virus disease” (Hoffmann-La Roche Inc., priority 2017, dated 2020).

Tests used:
[1] = test system: extracellular HBeAg level (surrogate marker for cccDNA) in HepDES19 cells; assay: HepDES19 primary screen assay; assay type: cell-based, HBV; settings: Hepatitis B virus, 120 h, 5 days compound incubation, HBeAg ELISA
Description: The assay was employed to primarily screen for novel cccDNA inhibitors. HepDES19 is an engineered cell line which contains a 1.1 unit length HBV genome, and pgRNA transcription from the transgene is controlled by Tetracycline (Tet). In the absence of Tet, pgRNA transcription will be induced, but HBV e antigen (HBeAg) could not be produced from this pgRNA due to the fact that the very short leader sequence before the HBeAg start codondisrupted the start codon. Only after cccDNA is formed, the missing leader sequence and start codon mutation would be restored from the 3′-terminal redundancy of pgRNA, and then HBeAg could be synthesized. Therefore, HBeAg could be used as a surrogate marker for cccDNA (Zhou, T. et al., Antiviral Res(2006), 72(2), 116-124; Guo, H. et al., J. Virol (2007), 81(22), 12472-12484).
HepDES19 cells were seeded at 2×10^6 cells per T150 flask and cultured with the culture medium (Dulbecco's Modified Eagle Medium: Nutrient Mixture F-12 (DMEM:F12, Gibco Cat. 11320-82), 10% Fetal Bovine Serum (FBS, Clontech Cat. 631101), 0.1 mM Non-Essential Amino Acids Solution (NEAA, Gibco Cat. 11140-050), 50 μg/mL Penicillin-Streptomycin (PS, Invitrogen Cat. 15140-163), 500 μg/mL Geneticin (G418, Invitrogen Cat. 10131-027) containing 3 μg/mL Tet (Sigma, Cat. 87128) for 5 days. Cells were then seeded at 4×10^6 cells per T150 in the same culture medium as described above in the absence of Tet for 8 days. Cells were then harvested and frozen at density of 2×10^6 cells per mL. For compound testing, the frozen cells were thawed and seeded into 96-well plates at a density of 6×10^4 cells per well. At 24 hrs after seeding, half log serial dilutions of compounds made with Dimethyl sulfoxide (DMSO, Sigma, Cat. D2650) were further diluted with the same culture medium as described above before they were added to the cells to reach desired final compound concentrations and 1% DMSO concentration. Plates were then incubated at 37° C. for another 5 days before measurement of HBeAg level and cell viability. Extracellular HBeAg level were measured with enzyme-linked immunosorbent assay (ELISA) kit (Shanghai Kehua Diagnostic Medical Products Co., Ltd). Cell viability was assessed using Cell Counting Kit-8 (Donjindo, Cat. CK04-20). IC50 values were derived from the dose-response curve using 4 parameter logistic curve fit method.
The compounds of the present invention were tested for their capacity to inhibit extracellular HBeAg level as described herein.

[2] = test system: cccDNA level in HepDES19 cells; assay: cccDNA Southern Blot assay; assay type: cell-based, HBV; settings: 5 days' compound treatment, Hirt DNA, serial dilutions
Protocol: HepDES19 cells were seeded at 4×10^6 cells per T150 in the culture medium (Dulbecco's Modified Eagle Medium: Nutrient Mixture F-12 (DMEM:F12, Gibco Cat. 11320-82), 10% Fetal Bovine Serum (FBS, Clontech Cat. 631101), 0.1 mM Non-Essential Amino Acids Solution (NEAA, Gibco Cat. 11140-050), […] Penicillin-Streptomycin (PS, Invitrogen Cat. 15140-163), 500 μg/mL Geneticin (G418, Invitrogen Cat. 10131-027) in the absence of Tet for 8 days. These cells were seeded at the density of 1×10^6 cells per well in 6-well plate. At 24 hrs after seeding, serial dilutions of compounds made with DMSO (Sigma, Cat. D2650) were further diluted with the same culture medium as described above before they were added to the cells to reach desired final compound concentrations and 1% DMSO concentration. After 5 days' compound treatment, the cells growing in one well from 6-well plate were re-suspended with 500 μL re-suspension buffer (50 mM tris[hydroxymethyl]aminomethane pH 7.5), 10 mM ethylenediaminetetraacetic acid (EDTA), 50 μg/mL RNase A (Qiagen, Cat. 158922). 500 μL of 1.2% sodium dodecyl sulfate (SDS) was then added into the re-suspended cells to lyse the cells. After 15 minutes' incubation, 700 μL precipitation buffer (3M cesium chloride, 1M potassium acetate, 0.67M acetic acid) was added and the lysate was incubated at 4° C. for 2 h. The lysate was centrifuged at 15000 revolutions per minute (RPM) at 4° C. for 15 minutes. The supernatant was collected and loaded onto Qiagen miniprep columns (QIAprep spin Mini prep kit, Cat. No. 27016). After centrifugation for 1 minute at 15000 RPM, the column was washed once with 750 µL wash buffer PE from QIAprep spin Mini prep kit. 80 μL of double distilled water was loaded to the columns to elute Hirt DNA.
Hirt DNA of each sample was loaded into 1.2% lx tris-acetate electrophoresis (TAE) agarose gel and separated at 90 voltages for 3 hours. The gel was then treated in 50 mM NaAc—HAc, pH4.2 for 30 min at room temperature (RT), and then denatured by soaking in denaturation buffer (0.5 M sodium hydroxide, 1.5 M sodium chloride) at RT for 30-45 min. The gel was then treated with neutralization buffer (1M tris[hydroxymethyl]aminomethane pH7.4 and 1.5M NaCl) at RT for 30 to 45 min.
The gel was transferred onto a pre-wet Nylon membrane (GE life science, Hybond N+) by capillary transfer method overnight, followed by UV crosslinking. The membrane was transferred into a hybridization tube, then rinsed with double distilled water at 60° C. for 5 mins. 10 mL of hybridization buffer (Lab kits, China) was added, the resulting sample was rotated in hybridization oven at 60° C. for 1 hour. Digoxigenin (DIG)-labelled HBV probe (SEQ ID NO: 1) was denatured at 95° C. for 10 minutes, and then 7 μL of denatured probe was added to the hybridization tube, which was rotated in hybridization oven at 60° C. overnight.
On the second day, the membrane was washed according to the procedure of DIG wash and block buffer set kit (Roche, Cat. 11 585 762 001), and then incubated with 50 mL antibody solution (Antibody anti-Digoxigenin-AP Fab fragment (Roche Cat. 11093274910) diluted in fresh 1× blocking buffer at 1:10,000) for 1 hour. The membrane was washed with 50 mL washing buffer (1× Maleic buffer with 0.3% Tween-20) for 15 minutes twice, and equilibrated with 20 mL detection buffer (0.1M tris[hydroxymethyl]aminomethane pH9.5, 0.1M sodium chloride) for 5 minutes. CDP-Star substrate (Roche, Cat. 12041677001) was added to the membrane for 5 minutes, and then the membrane was scanned by Bio-Rad Visualize Image System (Biorad, ChemiDoc-MP, Serial No. 731BR00916).

O=C(O)C1CCN(c2ccc3c(=O)c4cccc(Br)c4oc3c2)C1 (centres unmarked) [Example 7, 1-(5-bromo-9-oxo-xanthen-3-yl)pyrrolidine-3-carboxylic acid]
IC50 [1]: 3.56 µM
cccDNA level in HepDES19 cells (Southern Blot) [2]: dose-dependently reduced cccDNA level
